System: UV-induced free radicals in porcine ear skin
Assay: Skin antioxidative protection/retention (SAP/SAR) by ESR spectroscopy in porcine ear skin exposed to UV
Design: species or system pig
Source text: Freshly excised porcine ear skin is close to human skin that is routinely used as a model for testing the protective efficacy of several topically applied antioxidants against UV-induced free radicals. Porcine skin biopsies obtained from local slaughterhouse (pig skin, 6 month old animals, external lobe of the ears) were used for the experiments. The skin was washed, the subdermal fat was removed and cut into 2×2 cm pieces before the application of test samples on the epidermal layer.
The skin has an intrinsic antioxidant protection potential (enzymatic and non-enzymatic), which can be measured by electron spin resonance (ESR) spectroscopy. If an active test sample applied to the stratum corneum penetrates to deep layers of skin, it increases the skin antioxidative protection (SAP). Labeling skin epidermis and dermis (by soaking skin on dermis side) with a semi-stable test radical (TEMPO, 2,2,6,6-tetramethyl piperidine-N-oxyl) that reacts with free radicals produces signal intensities detected by ESR spectroscopy, which can be quantitatively expressed as percent SAP values to determine the antioxidant activity in skin (epidermis and dermis).
Using SAP values from ESR spectroscopy, skin antioxidative retention (SAR) potential of a test cosmetic formulation can be effectively measured using appropriate radical probes. SAR value indicates the antioxidative activity of the skin after free radical damage (UV radiation), which evaluates the protective effectiveness of topically applied antioxidants/free radical scavengers. In addition to the assessment of antioxidative activity in skin, the SAR value also validates the penetration of the topically applied antioxidants. The SAR values are expressed in percent and are calculated using the following formula: SAR [%]=(SAPUV,Product−SAPUV,Placebo)/(SAPPlacebo−SAPUV,Placebo).
The study was conducted blinded and the operator was supplied with formulations that were coded. Pro-NP™, control NPs, or placebo (mixed at 2% w/w in anhydrous lotion) were applied on the skin (2 mg/cm^2) and allowed to penetrate for definite times (10 minutes, 30 minutes, 4 hours or 18 hours). The skin was then exposed to UV radiation (0.6 MED; Minimal Erythema Dose) to induce free radicals that lead to a decrease in the SAP values up to 59% of the initial value (without UV treatment) of the untreated skin. Irradiation source: UV solar simulator 300 W Oriel (Newport). The irradiances as integrated value over the spectral ranges were E (UVB=280-320)=23.5 W/m^2 and E (UVA=320-400 nm)=180 W/m^2. The maintenance of the SAP values after UV exposure due to the test product is expressed by the SAR values.

Substance: Tocopherol [1% Tocopherol]
- SAR (%) 10 mins (2% w/w in anhydrous lotion, 2 mg/cm^2, 10 mins penetration, UV 0.6 MED): 20%
- SAR (%) 30 mins (30 mins penetration, UV 0.6 MED): 6%
- SAR (%) 4 hrs (4 hrs penetration, UV 0.6 MED): 0%
- SAR (%) 18 hrs (18 hrs penetration, UV 0.6 MED): 0%
- protection after UV (after 10 minutes application): 24%
- protection after UV (after 30 minutes): very weak protection
- increase of the SAP values before UV irradiation with respect to untreated skin (without UV irradiation): 29%

— patent US10517934B2, “Compositions and methods for the treatment of photoaging and other conditions” (PRO TRANSIT NANOTHERAPY LLC, priority 2014, dated 2019)
